Columns and labels:
SuSy3-haplotype#9 = system: T1, SuSy3-haplotype#9; assay: sucrose cleavage; UDP-glucose quantified by UDP-glucose dehydrogenase / NADH; Michaelis-Menten fit; type: biochemical, Solanum arcanum; conditions: 4 mM UDP, 20 mM HEPES pH 7.5, 25 °C; IMAC-purified
T1 construct: natural wild-species haplotype, full length (805 aa), in pDR195, expressed in Saccharomyces cerevisiae 22574d, IEX- and IMAC-purified; equals S. lycopersicum SuSy3 haplotype#1 with S53A/S106I/E727D/K741E (natural differences)
Text: sucrose cleavage; UDP-glucose quantified by UDP-glucose dehydrogenase / NADH; Michaelis-Menten fit on SuSy3-haplotype#9

SuSy3-haplotype#10 = system: T2, SuSy3-haplotype#10; assay: as above; type: biochemical, Solanum neorickii; conditions: 4 mM UDP, 20 mM HEPES pH 7.5, 25 °C; IEX-purified only (lower purity)
T2 construct: natural wild-species haplotype, full length (805 aa), in pDR195, expressed in Saccharomyces cerevisiae 22574d, IEX-purified only; equals S. lycopersicum SuSy3 haplotype#1 with S53A/S106I/Q349L/E727D/K741E (natural differences)
Text: sucrose cleavage; UDP-glucose quantified by UDP-glucose dehydrogenase / NADH; Michaelis-Menten fit on SuSy3-haplotype#10

- Km (SuSy3-haplotype#9): 33 ± 9 mM
- Km (SuSy3-haplotype#10): 58 ± 14 mM
SMILES: OC[C@H]1O[C@@](CO)(O[C@H]2O[C@H](CO)[C@@H](O)[C@H](O)[C@H]2O)[C@@H](O)[C@@H]1O [sucrose]
